Measurements taken from patent US7022699B2, “Cyclohexenyl phenyl diazepines vasopressin and oxytocin receptor modulators” (Wyeth, priority 2001, dated 2006).

Target: T1, human oxytocin receptor (Homo sapiens, UniProt P30559)
T1 construct: host or cells: CHO cells, stably transfected (pcDNA3.1 vector); membranes
T1 sequence (P30559 1-389): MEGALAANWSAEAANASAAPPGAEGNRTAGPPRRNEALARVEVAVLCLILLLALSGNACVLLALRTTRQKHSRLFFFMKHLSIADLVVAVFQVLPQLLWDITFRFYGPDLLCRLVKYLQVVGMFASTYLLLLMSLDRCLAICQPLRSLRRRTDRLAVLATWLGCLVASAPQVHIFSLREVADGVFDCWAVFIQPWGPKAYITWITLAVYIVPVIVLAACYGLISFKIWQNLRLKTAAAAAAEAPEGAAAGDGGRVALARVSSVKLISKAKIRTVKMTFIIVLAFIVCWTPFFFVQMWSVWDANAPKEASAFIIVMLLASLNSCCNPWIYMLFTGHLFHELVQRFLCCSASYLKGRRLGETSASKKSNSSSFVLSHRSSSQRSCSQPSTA
Test: Oxytocin binding in CHO cell membranes expressing human oxytocin receptors ([3H]oxytocin)
Conditions: for inhibition at 0.1 µM: read-out: OT % inhibition @ 100 nM; for IC50: values in parentheses, read-out: OT (IC50)
From the text: Oxytocin Binding in Chinese Hamster Ovary Cell Membranes Expressing Human Oxytocin Receptors
Chinese Hamster Ovary (CHO) cells stably transfected with the human oxytocin (cf. Tanizawa et al., U.S. Pat. No. 5,466,584 (1995) to Rohto Pharmaceutical Co. Ltd., Osaka, Japan) were obtained from M. Thibonnier, Case Western Reserve University School of Medicine, Cleveland, Ohio. A. Passaging and Amplification of Cells: CHO cells transfected with the human oxytocin receptors obtained from M. Thibonnier (pcDNA3.1 vector) are allowed to grow to confluency (approx. >90%) in T-150 flasks under sterile conditions, in a cell culture medium of F-12 Nutrient Mixture (HAM) with L-glutamine (Gibco Cat. #11765-054) containing 15 mM HEPES (Gibco Cat. #15630-080), 1% antibiotic/antimycotic (add 5 mL 100×, Gibco Cat. #15240-062 per 500 mL F-12), 400 μg/mL of Geneticin (add 4 mL of 50 mg/mL per 500 mL F-12) and 10% Fetal Bovine Serum (Qualified, heat inactivated, Gibco Cat. #16140-063). The medium is removed by aspiration and the cells are washed with 10 mL of Hank's Balanced Salt solution (Gibco Cat. #14175-095). The salt solution is removed by aspiration and the cells trypsinized with 5 mL of trypsin-EDTA (0.05% trypsin, 0.53 mM EDTA-4Na, Gibco Cat. #25300-070) for 1 min. The trypsin is removed by aspiration and the cells dislodged by tapping. Cell Culture medium (e.g. 30 mL for 1:30 split) is immediately added and mixed well to inactivate trypsin. 1 mL of detached cells is added to new culture flasks containing fresh Cell Culture medium (e.g. into 25 mL per T-150 flask), and mixed gently. The cells are incubated at 37° C. in 5% CO2. The medium is changed at 3 to 4 days interval (or as appropriate). The cells grow to confluency (approx. >75%–95%) within 7–8 days. All steps are done under sterile conditions. B. Membrane Preparation: The cells are washed twice gently with Hank's Balanced Salt solution (e.g., use 10 mL per T-150 flask). The excess is removed and the cells bathed for 15–30 min. in an enzyme-free Cell Dissociation Buffer (e.g., use 8 mL Hank's Based, Gibco Cat. #13150-016 per T-150 flask) until cells are loosened. The contents are transferred to centrifuge tubes (50 mL size) kept in ice bath. All subsequent steps are done at 4° C. The tubes are centrifuged at 300×g for 15 min (1380 rpm on SORVAL, Model RT6000D, using rotor for 50 mL tubes). The supernatant is discarded and the cells suspended in homogenizing buffer (10 mM Tris-HCl containing 0.25 M sucrose and 1 mM EDTA, pH 7.4) ensuring that the volume of the buffer is about ten times the volume of the cell pellet. The cells are pooled into a centrifuge tube (50 mL) and homogenized with Polytron at setting 6 for 10 sec. The homogenate is transferred into a Potter-Elvjehm homogenizer and homogenized with 3 strokes. The homogenate is centrifuged at 1500×g for 10 min at 4° C. (3100 rpm using SORVAL, model RT6000D, using rotor for 50 mL tubes). The pellet. is discarded. The supernatant is centrifuged at 100,000×g for 60 min. at 4° C. (Beckman L8-80M ultracentrifuge; spin at 37,500 rpm with rotor type 70 Ti for 50 mL tubes; 38,000 rpm with type 80Ti for 15 mL tubes; or 35,800 rpm with rotor type 45Ti). The supernantant is discarded and the pellet suspended in 3 to 4 mL of Tris buffer (50 mM TRIS-HCl, pH 7.4). The protein content is estimated by the Bradford or Lowry method. The volume of the membrane suspension is adjusted with the membrane buffer (50 mM Tris-HCl containing 0.1% BSA and 0.1 mM PMSF) to give 3.0 mg/mL (or as appropriate) of protein. The membranes are aliquoted and stored at −70° C. C. Radioligand Binding Assay: In wells of a 96-well format microliter plate, is added 90, 110 or 130 μL (to make up a final volume of 200 μL) of assay buffer containing 50 mM of Tris-HCl (pH 7.4), […], 1 mg % aprotinin, 1 mg % leupeptin, 2 mg % 1,10-phenanthroline, 10 mg % trypsin inhibitor, and 0.1 mM PMSF. The inhibitors are added on the day of the experiment. […]

[1] = 100 nM, values without parentheses

Row | inhibition at 0.1 µM [1] | Compound | further results
1 | 65% | O=C(c1ccc(C2=CCCc3ccccc32)cc1Cl)N1Cc2cccn2Cc2ccccc21 [Example 11, (10,11-Dihydro-5H-pyrrolo[2,1-c][1,4]benzodiazepin-10-yl)-[2-chloro-4-(3,4-dihydro-naphthalen-1-yl)-phenyl]-methanone] | 
2 |  | O=C(c1ccc(C2=CCC3CCC2C3)cc1)N1Cc2cccn2Cc2ccccc21 (stereo not shown) [Example 21] | OT % inhibition @ 100 nM [1]: 38%
3 |  | CC1CCCC=C1c1ccc(C(=O)N2Cc3cccn3Cc3ccccc32)cc1 (stereo not shown) [Example 16, (10,11-Dihydro-5H-pyrrolo[2,1-c][1,4]benzodiazepin-10-yl)-[4-(6-methyl-cyclohex-1-en-1-yl)-phenyl]-methanone] | IC50: 21.8 nM
4 | 96% | CC1=C(c2ccc(C(=O)N3Cc4cccn4Cc4ccccc43)cc2)CCCC1O (stereo not shown) [Example 27, (10,11-Dihydro-5H-pyrrolo[2,1-c][1,4]benzodiazepin-10-yl)-[4-(3-hydroxy-2-methyl-cyclohex-1-en-1-yl)-phenyl]-methanone] | 
5 | 80% | O=C(c1ccc(C2=CCCc3ccccc32)cc1)N1Cc2cccn2Cc2ccccc21 [Example 18, (10,11-Dihydro-5H-pyrrolo[2,1-c][1,4]benzodiazepin-10-yl)-[4-(3,4-dihydro-naphthalen-1-yl)-phenyl]-methanone] | 
6 | 70% | O=C1C=C(c2ccc(C(=O)N3Cc4cccn4Cc4ccccc43)cc2)CCC1 [Example 24, 3-[4-(10,11-Dihydro-5H-pyrrolo[2,1-c][1,4]benzodiazepine-10-carbonyl)-phenyl]-cyclohex-2-en-1-one] | 
7 | 46% | CC1=C(c2ccc(C(=O)N3Cc4cccn4Cc4ccccc43)cc2C)CCCC1=O [Example 4, 3-[2-Methyl-4-(5H-pyrrolo[2,1-c][1,4]benzodiazepin-10(11H)-yl-carbonyl)phenyl]-2-methyl-cyclohex-2-en-1-one] | 
8 | 20% | Cc1cc(C(=O)N2Cc3cccn3Cc3ccccc32)ccc1C1=CCCCC1C(C)(C)C (stereo not shown) [Example 34, (10,11-Dihydro-5H-pyrrolo[2,1-c][1,4]benzodiazepin-10-yl)-[4-(6-tert-butyl-cyclohex-1-en-1-yl)-3-methyl-phenyl]-methanone] | 
9 | 93% | COc1cc(C2=CCCc3ccccc32)c(Cl)cc1C(=O)N1Cc2cccn2Cc2ccccc21 [Example 8, 10-[5-Chloro-4-(3,4-dihydro-naphthalen-1-yl)-2-methoxybenzoyl]-10,11-dihydro-5H-pyrrolo[2,1-c][1,4]benzodiazepine] | 
10 | 74% | CC1(C)CCCC=C1c1ccc(C(=O)N2Cc3cccn3Cc3ccccc32)c(Cl)c1 [Example 12, (10,11-Dihydro-5H-pyrrolo[2,1-c][1,4]benzodiazepin-10-yl)-[2-chloro-4-(6,6-dimethyl-cyclohex-1-en-1-yl)-phenyl]-methanone] | 
11 | 90% | CC1=C(c2ccc(C(=O)N3Cc4cccn4Cc4ccccc43)cc2C)CCC[C@H]1O (single isomer, unassigned) [Example 41] | 
12 |  | O=C(c1ccc(C2=CCCCC2)cc1)N1Cc2cccn2Cc2ccccc21 [Example 15, (10,11-Dihydro-5H-pyrrolo[2,1-c][1,4]benzodiazepin-10-yl)-(4-cyclohex-1-en-1-yl-phenyl)-methanone] | IC50: 48.9 nM
13 | 16% | COc1cccc(C2=C(c3ccc(C(=O)N4Cc5cccn5Cc5ccccc54)cc3C)CCCC2)c1 [Example 38, (10,11-Dihydro-5H-pyrrolo[2,1-c][1,4]benzodiazepin-10-yl)-{4-[2-(3-methoxy-phenyl)-cyclohex-1-en-1-yl]-3-methyl-phenyl}-methanone] | 
14 | 7% | CC1(C)C=C(c2ccc(C(=O)N3Cc4cccn4Cc4ccccc43)cc2)CC(C)(C)C1 [Example 23, (10,11-Dihydro-5H-pyrrolo[2,1-c][1,4]benzodiazepin-10-yl)-[4-(3,3,5,5-tetramethyl-cyclohex-1-en-1-yl)-phenyl]-methanone] | 
15 |  | COc1cc(C2=CCCCC2)c(Cl)cc1C(=O)N1Cc2cccn2Cc2ccccc21 [Example 1, 10-(5-Chloro-4-cyclohex-1-en-1-yl-2-methoxybenzoyl)-10,11-dihydro-5H-pyrrolo[2,1-c][1,4]benzodiazepine] | IC50: 7.74 nM
16 | 39% | O=C(c1ccc(C2=CC(O)CCC2)cc1)N1Cc2cccn2Cc2ccccc21 (stereo not shown) [Example 25, (10,11-Dihydro-5H-pyrrolo[2,1-c][1,4]benzodiazepin-10-yl)-[4-(3-hydroxy-cyclohex-1-en-1-yl)-phenyl]-methanone] | 
17 | 14% | Cc1cc(C(=O)N2Cc3cccn3Cc3ccccc32)ccc1C1=CCC2CC1C2(C)C (stereo not shown) [Example 36, (10,11-Dihydro-5H-pyrrolo[2,1-c][1,4]benzodiazepin-10-yl)-[4-(6,6-dimethyl-bicyclo[3.1.1]hept-2-en-2-yl)-3-methyl-phenyl]-methanone] | 
18 | 48% | Cc1cc(C(=O)N2Cc3cccn3Cc3ccccc32)ccc1C1=CCC2CCC1C2 (stereo not shown) [Example 35, (10,11-Dihydro-5H-pyrrolo[2,1-c][1,4]benzodiazepin-10-yl)-(4-bicyclo[3.2.1]oct-2-en-2-yl-3-methyl-phenyl)-methanone] | 
19 | 47% | CC1=C(c2ccc(C(=O)N3Cc4cccn4Cc4ccccc43)cc2)C(C)CCC1 (stereo not shown) [Example 19, (10,11-Dihydro-5H-pyrrolo[2,1-c][1,4]benzodiazepin-10-yl)-[4-(2,6-dimethyl-cyclohex-1-en-1-yl)-phenyl]-methanone] | 
20 | 95% | CC1=C(c2ccc(C(=O)N3Cc4cccn4Cc4ccccc43)cc2C)CCC[C@H]1O [Example 6, (10,11-Dihydro-5H-pyrrolo[2,1-c][1,4]benzodiazepin-10-yl)-[4-((3R)-3-hydroxy-2-methyl-cyclohex-1-en-1-yl)-3-methyl-phenyl]-methanone] | 
21 | 30% | Cc1cc(C(=O)N2Cc3cccn3Cc3ccccc32)ccc1C1=CC(C)(C)CC(C)(C)C1 [Example 37, (10,11-Dihydro-5H-pyrrolo[2,1-c][1,4]benzodiazepin-10-yl)-[3-methyl-4-(3,3,5,5-tetramethyl-cyclohex-1-en-1-yl)-phenyl]-methanone] | 
22 |  | CC1=C(c2ccc(C(=O)N3Cc4cccn4Cc4ccccc43)cc2)CCCC1 [Example 7, (10,11-Dihydro-5H-pyrrolo[2,1-c][1,4]benzodiazepin-10-yl)-[4-(2-methyl-cyclohex-1-en-1-yl)-phenyl]-methanone] | IC50: 9.06 nM
